Experimental data reported in publication PMC9506414, “Novel 2,6,9-Trisubstituted Purines as Potent CDK Inhibitors Alleviating Trastuzumab-Resistance of HER2-Positive Breast Cancers” (Pharmaceuticals, 2022).

Tests used:
Test in all cases: Kinome-wide inhibition profiling
Assay type in all cases: biochemical
AurkA = target: T1, AurkA (Homo sapiens, UniProt O14965)
T1 construct: purchased Reaction Biology Corp
Procedure: (§1) In vitro CDK12/cyclinK assays for all compounds and in vitro kinome-wide inhibition profiling of 30d at 10 μM were performed by a CRO company (Reaction Biology Corp., San Diego, CA, USA).

CAMK2b = target: T2, CAMK2b (Homo sapiens, UniProt Q13554)
T2 construct: purchased Reaction Biology Corp
Procedure: as §1

CDC7/DBF4 = target: T3, CDC7/DBF4 (Homo sapiens, UniProt O00311)
T3 construct: purchased Reaction Biology Corp
Procedure: as §1

CDK16 = target: T4, CDK16 (Homo sapiens, UniProt Q00536)
T4 construct: purchased Reaction Biology Corp
Procedure: as §1

EGFR = target: T5, EGFR (Homo sapiens, UniProt P00533)
T5 construct: purchased Reaction Biology Corp
Procedure: as §1

EPHA1 = target: T6, EPHA1 (Homo sapiens, UniProt P21709)
T6 construct: purchased Reaction Biology Corp
Procedure: as §1

EPHA5 = target: T7, EPHA5 (Homo sapiens, UniProt P54756)
T7 construct: purchased Reaction Biology Corp
Procedure: as §1

ERBB2 = target: T8, ERBB2 (Homo sapiens, UniProt P04626)
T8 construct: purchased Reaction Biology Corp
Procedure: as §1

ERBB4 = target: T9, ERBB4 (Homo sapiens, UniProt Q15303)
T9 construct: purchased Reaction Biology Corp
Procedure: as §1

FAK = target: T10, FAK (Homo sapiens, UniProt Q05397)
T10 construct: purchased Reaction Biology Corp
Procedure: as §1

FES = target: T11, FES (Homo sapiens, UniProt P07332)
T11 construct: purchased Reaction Biology Corp
Procedure: as §1

FGFR3 = target: T12, FGFR3 (Homo sapiens, UniProt P22607)
T12 construct: purchased Reaction Biology Corp
Procedure: as §1

GRK1 = target: T13, GRK1 (Homo sapiens, UniProt Q15835)
T13 construct: purchased Reaction Biology Corp
Procedure: as §1

GRK6 = target: T14, GRK6 (Homo sapiens, UniProt P43250)
T14 construct: purchased Reaction Biology Corp
Procedure: as §1

Haspin = target: T15, Haspin (Homo sapiens, UniProt Q8TF76)
T15 construct: purchased Reaction Biology Corp
Procedure: as §1

IRAK1 = target: T16, IRAK1 (Homo sapiens, UniProt P51617)
T16 construct: purchased Reaction Biology Corp
Procedure: as §1

JNK1 = target: T17, JNK1 (Homo sapiens, UniProt P45983)
T17 construct: purchased Reaction Biology Corp
Procedure: as §1

KSR1 = target: T18, KSR1 (Homo sapiens, UniProt Q8IVT5)
T18 construct: purchased Reaction Biology Corp
Procedure: as §1

LYN B = target: T19, LYN B (Homo sapiens, UniProt P07948)
T19 construct: purchased Reaction Biology Corp
Procedure: as §1

MAP3K3 = target: T20, MAP3K3 (Homo sapiens, UniProt Q99759)
T20 construct: purchased Reaction Biology Corp
Procedure: as §1

MEK5 = target: T21, MEK5 (Homo sapiens, UniProt Q13163)
T21 construct: purchased Reaction Biology Corp
Procedure: as §1

NDR1 = target: T22, NDR1 (Homo sapiens, UniProt Q15208)
T22 construct: purchased Reaction Biology Corp
Procedure: as §1

NIM1 = target: T23, NIM1 (Homo sapiens, UniProt Q8IY84)
T23 construct: purchased Reaction Biology Corp
Procedure: as §1

PAK1 = target: T24, PAK1 (Homo sapiens, UniProt Q13153)
T24 construct: purchased Reaction Biology Corp
Procedure: as §1

PAK5 = target: T25, PAK5 (Homo sapiens, UniProt Q9P286)
T25 construct: purchased Reaction Biology Corp
Procedure: as §1

PASK = target: T26, PASK (Homo sapiens, UniProt Q96RG2)
T26 construct: purchased Reaction Biology Corp
Procedure: as §1

PCTK3 = target: T27, PCTK3 (Homo sapiens, UniProt Q07002)
T27 construct: purchased Reaction Biology Corp
Procedure: as §1

PIM1 = target: T28, PIM1 (Homo sapiens, UniProt P11309)
T28 construct: purchased Reaction Biology Corp
Procedure: as §1

PRKCE = target: T29, PRKCE (Homo sapiens, UniProt Q02156)
T29 construct: purchased Reaction Biology Corp
Procedure: as §1

PRKCH = target: T30, PRKCH (Homo sapiens, UniProt P24723)
T30 construct: purchased Reaction Biology Corp
Procedure: as §1

PRKG1 = target: T31, PRKG1 (Homo sapiens, UniProt Q13976)
T31 construct: purchased Reaction Biology Corp
Procedure: as §1

PRKG1b = target: T32, PRKG1b (Homo sapiens, UniProt Q13976)
T32 construct: purchased Reaction Biology Corp
Procedure: as §1

PRKG2 = target: T33, PRKG2 (Homo sapiens, UniProt Q13237)
T33 construct: purchased Reaction Biology Corp
Procedure: as §1

QSK = target: T34, QSK (Homo sapiens, UniProt Q9Y2K2)
T34 construct: purchased Reaction Biology Corp
Procedure: as §1

RIPK5 = target: T35, RIPK5 (Homo sapiens, UniProt Q6XUX3)
T35 construct: purchased Reaction Biology Corp
Procedure: as §1

ROS1 = target: T36, ROS1 (Homo sapiens, UniProt P08922)
T36 construct: purchased Reaction Biology Corp
Procedure: as §1

RSK4 = target: T37, RSK4 (Homo sapiens, UniProt Q9UK32)
T37 construct: purchased Reaction Biology Corp
Procedure: as §1

SLK = target: T38, SLK (Homo sapiens, UniProt Q9H2G2)
T38 construct: purchased Reaction Biology Corp
Procedure: as §1

SRMS = target: T39, SRMS (Homo sapiens, UniProt Q9H3Y6)
T39 construct: purchased Reaction Biology Corp
Procedure: as §1

SRPK2 = target: T40, SRPK2 (Homo sapiens, UniProt P78362)
T40 construct: purchased Reaction Biology Corp
Procedure: as §1

TGFBR1 = target: T41, TGFBR1 (Homo sapiens, UniProt P36897)
T41 construct: purchased Reaction Biology Corp
Procedure: as §1

TLK1 = target: T42, TLK1 (Homo sapiens, UniProt Q9UKI8)
T42 construct: purchased Reaction Biology Corp
Procedure: as §1

TSSK2 = target: T43, TSSK2 (Homo sapiens, UniProt Q96PF2)
T43 construct: purchased Reaction Biology Corp
Procedure: as §1

VRK1 = target: T44, VRK1 (Homo sapiens, UniProt Q99986)
T44 construct: purchased Reaction Biology Corp
Procedure: as §1

T27 sequence (Q07002 whole entry): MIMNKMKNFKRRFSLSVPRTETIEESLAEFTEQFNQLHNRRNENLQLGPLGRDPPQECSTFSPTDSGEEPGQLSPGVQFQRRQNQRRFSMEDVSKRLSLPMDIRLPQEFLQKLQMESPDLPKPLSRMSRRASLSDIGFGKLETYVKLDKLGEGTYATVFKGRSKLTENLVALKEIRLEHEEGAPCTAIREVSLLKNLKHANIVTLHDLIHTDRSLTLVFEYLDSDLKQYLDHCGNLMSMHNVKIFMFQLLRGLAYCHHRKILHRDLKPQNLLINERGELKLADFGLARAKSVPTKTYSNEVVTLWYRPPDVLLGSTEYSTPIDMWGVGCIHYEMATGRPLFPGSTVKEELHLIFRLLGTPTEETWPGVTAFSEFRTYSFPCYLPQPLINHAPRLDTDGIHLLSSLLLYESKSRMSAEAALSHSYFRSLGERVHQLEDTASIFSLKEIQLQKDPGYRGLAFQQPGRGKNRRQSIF
T27 sequence (Q8ND76 whole entry partner): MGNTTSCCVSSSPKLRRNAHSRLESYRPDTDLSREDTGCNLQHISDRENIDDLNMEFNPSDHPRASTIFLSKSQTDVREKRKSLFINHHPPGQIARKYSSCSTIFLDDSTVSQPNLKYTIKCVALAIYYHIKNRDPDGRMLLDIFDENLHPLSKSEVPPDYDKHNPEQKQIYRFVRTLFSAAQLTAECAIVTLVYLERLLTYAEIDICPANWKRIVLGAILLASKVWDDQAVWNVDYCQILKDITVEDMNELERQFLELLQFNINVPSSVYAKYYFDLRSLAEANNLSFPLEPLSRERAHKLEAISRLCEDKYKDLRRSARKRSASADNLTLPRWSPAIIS
T32 sequence (Q13976 1-686 isoform Q13976-2): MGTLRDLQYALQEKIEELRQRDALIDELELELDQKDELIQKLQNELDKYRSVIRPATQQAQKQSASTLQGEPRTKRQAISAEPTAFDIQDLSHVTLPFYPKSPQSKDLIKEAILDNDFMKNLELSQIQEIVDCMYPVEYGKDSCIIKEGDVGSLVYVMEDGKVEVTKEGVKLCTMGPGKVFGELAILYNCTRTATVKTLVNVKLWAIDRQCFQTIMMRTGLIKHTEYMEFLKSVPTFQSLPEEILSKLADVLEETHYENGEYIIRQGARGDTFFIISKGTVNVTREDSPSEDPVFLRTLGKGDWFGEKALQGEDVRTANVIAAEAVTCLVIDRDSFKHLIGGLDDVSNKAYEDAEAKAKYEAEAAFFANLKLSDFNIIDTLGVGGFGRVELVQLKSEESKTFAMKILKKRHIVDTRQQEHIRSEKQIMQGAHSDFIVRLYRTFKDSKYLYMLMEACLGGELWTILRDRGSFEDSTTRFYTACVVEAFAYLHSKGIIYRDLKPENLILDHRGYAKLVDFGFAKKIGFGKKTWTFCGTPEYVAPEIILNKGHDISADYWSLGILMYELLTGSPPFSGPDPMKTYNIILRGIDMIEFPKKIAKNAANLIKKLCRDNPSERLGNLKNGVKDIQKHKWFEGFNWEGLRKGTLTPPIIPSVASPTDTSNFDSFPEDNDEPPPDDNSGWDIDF
T17 sequence (P45983 whole entry): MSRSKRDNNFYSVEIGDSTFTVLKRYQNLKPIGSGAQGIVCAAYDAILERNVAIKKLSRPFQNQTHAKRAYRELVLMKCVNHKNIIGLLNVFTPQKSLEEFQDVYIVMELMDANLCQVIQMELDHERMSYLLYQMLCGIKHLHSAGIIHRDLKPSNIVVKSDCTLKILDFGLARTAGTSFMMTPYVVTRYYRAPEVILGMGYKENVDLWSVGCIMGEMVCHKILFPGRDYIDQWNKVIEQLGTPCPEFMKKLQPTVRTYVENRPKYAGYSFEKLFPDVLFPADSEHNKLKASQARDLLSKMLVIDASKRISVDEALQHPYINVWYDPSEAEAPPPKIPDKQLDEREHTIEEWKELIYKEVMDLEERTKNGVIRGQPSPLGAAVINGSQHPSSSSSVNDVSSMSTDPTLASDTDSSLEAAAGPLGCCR
T36 sequence (P08922 28-2347): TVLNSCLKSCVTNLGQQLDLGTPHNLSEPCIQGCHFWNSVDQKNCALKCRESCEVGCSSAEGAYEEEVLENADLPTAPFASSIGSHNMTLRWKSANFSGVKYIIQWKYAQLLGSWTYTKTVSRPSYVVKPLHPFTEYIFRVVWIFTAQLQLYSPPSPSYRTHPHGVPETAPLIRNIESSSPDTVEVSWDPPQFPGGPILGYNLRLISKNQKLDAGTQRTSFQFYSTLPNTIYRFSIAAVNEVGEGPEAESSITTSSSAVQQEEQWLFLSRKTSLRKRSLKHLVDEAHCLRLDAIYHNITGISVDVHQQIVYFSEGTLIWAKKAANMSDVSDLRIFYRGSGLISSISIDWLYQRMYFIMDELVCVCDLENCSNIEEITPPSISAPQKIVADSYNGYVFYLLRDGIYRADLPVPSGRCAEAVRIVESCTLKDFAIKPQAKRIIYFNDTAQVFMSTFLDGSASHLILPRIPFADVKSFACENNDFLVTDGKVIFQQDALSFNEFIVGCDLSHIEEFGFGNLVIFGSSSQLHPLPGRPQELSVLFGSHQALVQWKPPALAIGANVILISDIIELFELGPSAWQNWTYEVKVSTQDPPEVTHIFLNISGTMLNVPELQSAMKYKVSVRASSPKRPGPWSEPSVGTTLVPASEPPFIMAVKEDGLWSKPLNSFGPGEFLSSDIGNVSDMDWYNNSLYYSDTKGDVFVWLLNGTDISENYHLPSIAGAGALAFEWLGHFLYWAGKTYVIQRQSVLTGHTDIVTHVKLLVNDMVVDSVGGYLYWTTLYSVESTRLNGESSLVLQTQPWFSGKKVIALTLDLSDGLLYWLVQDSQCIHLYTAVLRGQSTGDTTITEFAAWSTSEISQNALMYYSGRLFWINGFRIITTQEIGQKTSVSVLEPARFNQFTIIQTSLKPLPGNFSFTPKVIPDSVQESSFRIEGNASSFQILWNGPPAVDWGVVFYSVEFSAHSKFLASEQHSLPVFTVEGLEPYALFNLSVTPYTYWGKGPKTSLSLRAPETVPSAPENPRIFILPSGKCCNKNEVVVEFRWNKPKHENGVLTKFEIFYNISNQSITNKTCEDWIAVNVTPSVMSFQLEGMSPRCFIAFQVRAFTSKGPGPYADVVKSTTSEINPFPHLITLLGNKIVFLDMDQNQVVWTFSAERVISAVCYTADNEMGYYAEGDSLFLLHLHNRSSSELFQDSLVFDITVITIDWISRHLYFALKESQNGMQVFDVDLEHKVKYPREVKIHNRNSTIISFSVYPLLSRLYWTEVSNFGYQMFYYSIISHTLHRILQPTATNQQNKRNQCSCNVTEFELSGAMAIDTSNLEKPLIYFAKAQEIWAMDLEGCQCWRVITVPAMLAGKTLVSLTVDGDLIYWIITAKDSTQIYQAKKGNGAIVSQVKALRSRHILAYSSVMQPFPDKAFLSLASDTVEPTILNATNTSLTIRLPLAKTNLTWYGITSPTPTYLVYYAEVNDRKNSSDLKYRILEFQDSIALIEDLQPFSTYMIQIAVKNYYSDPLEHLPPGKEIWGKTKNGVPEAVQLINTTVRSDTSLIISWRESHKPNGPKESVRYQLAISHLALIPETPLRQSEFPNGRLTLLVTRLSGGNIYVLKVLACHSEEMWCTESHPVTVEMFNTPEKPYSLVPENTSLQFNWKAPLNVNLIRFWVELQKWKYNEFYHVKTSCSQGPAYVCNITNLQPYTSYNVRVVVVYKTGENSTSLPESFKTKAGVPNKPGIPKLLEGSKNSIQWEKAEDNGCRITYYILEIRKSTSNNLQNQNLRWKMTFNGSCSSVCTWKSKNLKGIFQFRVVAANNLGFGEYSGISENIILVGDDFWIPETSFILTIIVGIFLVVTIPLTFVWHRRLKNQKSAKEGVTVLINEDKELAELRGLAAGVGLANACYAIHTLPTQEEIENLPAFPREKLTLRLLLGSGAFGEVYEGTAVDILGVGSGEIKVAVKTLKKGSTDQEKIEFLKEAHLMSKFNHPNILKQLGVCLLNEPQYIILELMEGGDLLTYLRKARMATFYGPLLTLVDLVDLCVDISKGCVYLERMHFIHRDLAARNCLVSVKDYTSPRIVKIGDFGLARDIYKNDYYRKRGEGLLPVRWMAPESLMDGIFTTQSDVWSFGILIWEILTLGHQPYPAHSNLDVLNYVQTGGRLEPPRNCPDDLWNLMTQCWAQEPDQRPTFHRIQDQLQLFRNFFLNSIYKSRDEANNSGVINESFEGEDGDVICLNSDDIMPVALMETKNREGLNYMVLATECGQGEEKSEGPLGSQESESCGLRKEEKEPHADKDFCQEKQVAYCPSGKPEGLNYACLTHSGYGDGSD
T16 sequence (P51617 whole entry): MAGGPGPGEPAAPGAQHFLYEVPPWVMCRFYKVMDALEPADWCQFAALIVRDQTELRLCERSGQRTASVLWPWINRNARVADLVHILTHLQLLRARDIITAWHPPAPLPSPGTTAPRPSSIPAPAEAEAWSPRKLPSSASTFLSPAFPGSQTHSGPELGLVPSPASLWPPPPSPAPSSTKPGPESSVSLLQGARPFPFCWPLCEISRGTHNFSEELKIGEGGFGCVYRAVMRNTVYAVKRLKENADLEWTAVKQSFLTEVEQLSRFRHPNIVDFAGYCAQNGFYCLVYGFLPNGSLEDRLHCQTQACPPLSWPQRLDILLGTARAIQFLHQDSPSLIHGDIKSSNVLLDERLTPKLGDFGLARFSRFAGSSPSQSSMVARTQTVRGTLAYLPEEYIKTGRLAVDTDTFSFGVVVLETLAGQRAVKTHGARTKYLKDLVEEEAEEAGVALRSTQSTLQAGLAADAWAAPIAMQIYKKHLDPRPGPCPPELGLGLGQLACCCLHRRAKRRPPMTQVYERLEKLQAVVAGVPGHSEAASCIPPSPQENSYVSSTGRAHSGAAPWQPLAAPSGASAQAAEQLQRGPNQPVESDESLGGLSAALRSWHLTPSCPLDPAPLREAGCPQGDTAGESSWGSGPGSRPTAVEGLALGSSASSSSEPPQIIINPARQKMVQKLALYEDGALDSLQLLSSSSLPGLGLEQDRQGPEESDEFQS

Compound: CCn1cnc2c(NCc3ccc(-c4ccccn4)nc3)nc(-c3ccc(N)nc3)nc21 [Compound 30d, N-([2,2′-Bipyridin]-5-ylmethyl)-2-(6-aminopyridin-3-yl)-9-ethyl-9H-purin-6-amine]
- remaining activity at 10 µM (AurkA): 33.4%
- remaining activity at 10 µM (CAMK2b): 65.2%
- remaining activity at 10 µM (CDC7/DBF4): 98.2%
- remaining activity at 10 µM (CDK16): 17.5%
- remaining activity at 10 µM (EGFR): 83.7%
- remaining activity at 10 µM (EPHA1): 13.2%
- remaining activity at 10 µM (EPHA5): 5.9%
- remaining activity at 10 µM (ERBB2): 74.2%
- remaining activity at 10 µM (ERBB4): 73%
- remaining activity at 10 µM (FAK): 52.5%
- remaining activity at 10 µM (FES): 6.4%
- remaining activity at 10 µM (FGFR3): 30.6%
- remaining activity at 10 µM (GRK1): 76.3%
- remaining activity at 10 µM (GRK6): 80.6%
- remaining activity at 10 µM (Haspin): 79.4%
- remaining activity at 10 µM (IRAK1): 79%
- remaining activity at 10 µM (JNK1): 41.6%
- remaining activity at 10 µM (KSR1): 100%
- remaining activity at 10 µM (LYN B): 54.4%
- remaining activity at 10 µM (MAP3K3): 94%
- remaining activity at 10 µM (MEK5): 84.1%
- remaining activity at 10 µM (NDR1): 28.3%
- remaining activity at 10 µM (NIM1): 76%
- remaining activity at 10 µM (PAK1): 24.5%
- remaining activity at 10 µM (PAK5): 7.6%
- remaining activity at 10 µM (PASK): 96.3%
- inhibition at 10 µM (PCTK3; CDK18): > 95%
- remaining activity at 10 µM (PCTK3; PCTK3 (listed as CDK18 in Figure 6)): 2.5%
- remaining activity at 10 µM (PIM1): 97.8%
- remaining activity at 10 µM (PRKCE): 94.1%
- remaining activity at 10 µM (PRKCH): 87.9%
- remaining activity at 10 µM (PRKG1): 108%
- remaining activity at 10 µM (PRKG1b): 97.6%
- remaining activity at 10 µM (PRKG2): 99.5%
- remaining activity at 10 µM (QSK): 30.2%
- remaining activity at 10 µM (RIPK5): 67.8%
- remaining activity at 10 µM (ROS1): 27.8%
- remaining activity at 10 µM (RSK4): 54.2%
- remaining activity at 10 µM (SLK): 69.5%
- remaining activity at 10 µM (SRMS): 96.8%
- remaining activity at 10 µM (SRPK2): 60.7%
- remaining activity at 10 µM (TGFBR1): 112%
- remaining activity at 10 µM (TLK1): 67.8%
- remaining activity at 10 µM (TSSK2): 85.3%
- remaining activity at 10 µM (VRK1): 87.3%
